# Assay results: US20200267980A1, “Herbicidally Active Pyridyl-/Pyrimidyl-Pyrimidine Derivatives” (Syngenta Participations AG, priority 2017, published 2020)
# Experiments:
# Assay type in all cases: in vivo
# [1] = test system: Alopecurus myosuroides (ALOMY); experiment: Pre-emergence herbicidal activity, glasshouse pot test; set-up: key: 5=total damage to plant; 0=no damage to plant; settings: 1000 g/ha, pre-emergence spray, evaluated after 13 days, damage score 0-5
# Method in brief: (§1)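 Seeds sown in standard soil were sprayed one day after sowing (pre-emergence) with active ingredient formulated in acetone/water (50:50) containing 0.5% Tween 20. Plants were grown in a glasshouse (24/16 °C day/night, 14 h light, 65% humidity) and watered twice daily. Damage was scored after 13 days on a 0–5 scale (5 = total damage, 0 = none).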
# [2] = test system: Avena fatua (AVEFA); experiment: as above; set-up: key: 5=total damage to plant; 0=no damage to plant; settings: 1000 g/ha, pre-emergence spray, evaluated after 13 days, damage score 0-5
# Method in brief: as §1
# [3] = test system: Echinochloa crus-galli (ECHCG); experiment: as above; set-up: key: 5=total damage to plant; 0=no damage to plant; settings: 1000 g/ha, pre-emergence spray, evaluated after 13 days, damage score 0-5
# Method in brief: as §1
# [4] = test system: Lolium perenne (LOLPE); experiment: as above; set-up: key: 5=total damage to plant; 0=no damage to plant; settings: 1000 g/ha, pre-emergence spray, evaluated after 13 days, damage score 0-5
# Method in brief: as §1
# [5] = test system: Setaria faberi (SETFA); experiment: as above; set-up: key: 5=total damage to plant; 0=no damage to plant; settings: 1000 g/ha, pre-emergence spray, evaluated after 13 days, damage score 0-5
# Method in brief: as §1
# [6] = test system: Triticum aestivium (TRZAW); experiment: as above; set-up: key: 5=total damage to plant; 0=no damage to plant; settings: 1000 g/ha, pre-emergence spray, evaluated after 13 days, damage score 0-5
# Method in brief: as §1
# [7] = test system: Alopecurus myosuroides (ALOMY); experiment: Post-emergence herbicidal activity, glasshouse pot test; set-up: key: 5=total damage to plant; 0=no damage to plant; settings: 1000 g/ha, post-emergence spray after 8 days cultivation, evaluated after 13 days, damage score 0-5
# Method in brief: (§2)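 Post-emergence spray, 8-day-old pot-grown plants; vehicle acetone/water 50:50 + 0.5% Tween 20. Glasshouse 24/16° C day/night, 14 h light, 65% RH, watered 2×/day. Visual damage rated day 13, 0–5.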
# [8] = test system: Echinochloa crus-galli (ECHCG); experiment: as above; set-up: key: 5=total damage to plant; 0=no damage to plant; settings: 1000 g/ha, post-emergence spray after 8 days cultivation, evaluated after 13 days, damage score 0-5
# Method in brief: as §2
# [9] = test system: Lolium perenne (LOLPE); experiment: as above; set-up: key: 5=total damage to plant; 0=no damage to plant; settings: 1000 g/ha, post-emergence spray after 8 days cultivation, evaluated after 13 days, damage score 0-5
# Method in brief: as §2
# [10] = test system: Setaria faberi (SETFA); experiment: as above; set-up: key: 5=total damage to plant; 0=no damage to plant; settings: 1000 g/ha, post-emergence spray after 8 days cultivation, evaluated after 13 days, damage score 0-5
# Method in brief: as §2
# [11] = test system: Triticum aestivium (TRZAW); experiment: as above; set-up: key: 5=total damage to plant; 0=no damage to plant; settings: 1000 g/ha, post-emergence spray after 8 days cultivation, evaluated after 13 days, damage score 0-5
# Method in brief: as §2
# [12] = test system: Avena fatua (AVEFA); experiment: as above; settings: 1000 g/ha, post-emergence spray after 8 days cultivation, evaluated after 13 days, damage score 0-5
# Method in brief: as §2
Structure (SMILES),"Control of weed species after pre-emergence application, ALOMY [1]","Control of weed species after pre-emergence application, AVEFA [2]","Control of weed species after pre-emergence application, ECHCG [3]","Control of weed species after pre-emergence application, LOLPE [4]","Control of weed species after pre-emergence application, SETFA [5]","Control of weed species after pre-emergence application, TRAZW [6]","Control of weed species after post-emergence application, ALOMY [7]","Control of weed species after post-emergence application, ECHCG [8]","Control of weed species after post-emergence application, LOLPE [9]","Control of weed species after post-emergence application, SETFA [10]","Control of weed species after post-emergence application, TRAZW [11]","Control of weed species after post-emergence application, AVEFA [12]"
O=C(Nc1cnc(-c2cncc(F)c2)nc1C(F)(F)F)C(Cl)Cl [Compound F8],0,1,4,1,4,1,1,4,2,5,1,2
O=C(CC(F)(F)F)Nc1cnc(-c2cncc(F)c2)nc1C(F)(F)F [Compound F23],0,0,3,0,5,0,0,5,2,5,0,3
CC(=O)Nc1cnc(-c2cncnc2)nc1C(F)(F)F [Compound F31],1,2,4,1,4,1,1,4,2,4,1,3
O=C1CCCN1c1cnc(-c2cncc(F)c2)nc1C(F)(F)F [Compound F22],0,0,3,0,5,0,0,5,1,5,1,3
Cc1ccc(C(=O)Nc2cnc(-c3cncc(F)c3)nc2C(F)(F)F)cc1 [Compound F25],0,0,3,0,4,0,0,5,1,4,0,2
CCC(=O)N(C(=O)CC)c1cnc(-c2cncc(F)c2)nc1C(F)(F)F [Compound F7],0,1,2,1,2,0,1,5,2,4,1,2
